Each block holds one compound with its values, some of them ahead of it.
How the values were obtained:
[1] = Solubility Test 1: equilibrium solubility of lactitol crystals in water; type: physicochemical
Method: The determination of the solubility and stability of lactitol crystals in water was made as follows:
The lactitol, which was used in the tests, was high grade lactitol monohydrate Lactitol MC (batch 21769) manufactured by Xyrofin OY, Finland according to EP Patent 0456636. This monohydrate was also used as seed crystals. When lactitol dihydrate was studied at 45° C. and 55 ° C., lactitol dihydrate produced at the applicant's research laboratory Dec. 20, 1994 (crystallization No. 3) was used both for solution and as seed crystals. […] The water, which was used, was distilled water.
At 35° C. the supersaturation was 10 g/100 g. […] The solutions were made by dissolving the monohydrate into water at a temperature above the solubility temperature. The solutions which were used at 65° C. and 75° C. were made by evaporating with a vacuum rotating flask evaporator. The concentrations were determined by refractometric indexes (RI). At the temperatures of 5° C., 10° C. and 15° C. the solutions were made in a 2-liter jacketed vessel. The other solutions were made in 200 ml or 250 ml measurement bottles.
When the lactitol had dissolved, the solution was cooled to the test temperature. The solution was seeded with softly crushed monohydrate crystals (2 tests with dihydrate crystals). In the measurement bottles the solutions were stirred with a magnetic stirrer and in the jacketed vessel with a motor driven mixer.
The crystallization of lactitol and the equilibration of the solution was monitored by measuring the refractometric index (RI) of the mother liquid. Before taking a sample, the crystals were allowed settle on the bottom of the vessel, so that the measurement of the RI would be as exact as possible. […] Thus, the RI of the mother liquid was measured from a suspension of crystals and solution. At the end point of the measurement the waiting time was so long that the mother liquid was clearly separated and after that the RI of the mother liquid was measured. The RIs were measured below 55° C. with an Index Instruments GPR-11-37 refractometer and above 55° C. with a Zeiβ refractometer, both of which were calibrated.
The equilibration of the solution was generally monitored for 7 . . . 14 days, but only for 3 days, when dihydrate was used as seed crystals. […] 150° C. and reading accuracy of 0.2° C. The accuracy of this thermometer was checked against a calibrated thermometer.
After the crystal suspension had reached equilibrium, the crystals were separated by centrifuging 15 min 5000 rpm using a thick cloth. One part of the crystals was dried at 60° C. in a drying cabinet over a night. The water contents of both undried and dried crystals were analyzed by the Karl Fischer method or by a coulometric Karl Fischer method. Furthermore, melting behaviors were analyzed.
The final solubilities at the studied temperatures are shown in Tables 2 and 3 in addition to the crystal forms. The crystal form was concluded from the water contents of the undried crystals and from the melting ranges. The water contents are shown in Tables 4 and 5 and melting behaviors in Table 6.

[2] = Linear curve fittings of the solubility points and stability areas from intersections of solubility curves; type: physicochemical; conditions: for solubility line s as function of temperature t (linear fitting): t in ° C., s = weight of lactitol/(weight of lactitol+weight of water)×100%, between 100 and 0 ° C.
Text: The solubility data of Table 2 was combined with some earlier solubility measurement data. The curve fittings of the solubility points were made as linear fittings, when % by weight is used as a concentration unit. […] The fittings were made with the aid of the spread sheet program Excel 5.0^R. The solubility equations of the different hydrate forms are shown in Equations (I) to (IV): [formula]
The fitting of the trihydrate cannot be considered absolutely exact because only three measurement points were used for fitting: one exact point, one uncertain point and one calculatory point.
The solubility points and the curve fittings are shown in a graph in FIG. 1. […] From the intersections of solubility curves it is possible to conclude the stability areas of the different lactitol forms.

Solubility ([1]; 10.2 ° C., lactitol monohydrate used as seed crystals): 45.7 g/100 g
Solubility ([1]; 15.0 ° C., lactitol monohydrate used as seed crystals): 48.8 g/100 g
Solubility ([1]; 25.6 ° C., lactitol monohydrate used as seed crystals): 56.3 g/100 g
Solubility ([1]; 35.0 ° C., lactitol monohydrate used as seed crystals): 61.7 g/100 g
Solubility ([1]; 45.0 ° C., lactitol dihydrate used as seed crystals): 69.1 g/100 g
solubility line s as function of temperature t (linear fitting) ([2]; dihydrate): 39.7+0.6332t
Structure (SMILES): OC[C@@H](O)[C@@H](O[C@@H]1O[C@H](CO)[C@H](O)[C@H](O)[C@H]1O)[C@H](O)[C@@H](O)CO [dihydrate, lactitol dihydrate]

Solubility ([1]; 54.7 ° C., lactitol dihydrate used as seed crystals): 73.4 g/100 g
Solubility ([1]; 55.0 ° C., lactitol monohydrate used as seed crystals): 75.2 g/100 g
Solubility ([1]; 65.0 ° C., lactitol monohydrate used as seed crystals): 79.6 g/100 g
solubility line s as function of temperature t (linear fitting) ([2]; monohydrate): 50.2+0.4346t
Structure (SMILES): OC[C@@H](O)[C@@H](O[C@@H]1O[C@H](CO)[C@H](O)[C@H](O)[C@H]1O)[C@H](O)[C@@H](O)CO [monohydrate, lactitol monohydrate]

Solubility ([1]; 5.1 ° C., lactitol monohydrate used as seed crystals): 42.3 g/100 g
stability area (temperature) ([2]; in water, from the intersections of solubility curves, trihydrate): < 12 °C
solubility line s as function of temperature t (linear fitting) ([2]; trihydrate): 33.4+1.1482t
Structure (SMILES): OC[C@@H](O)[C@@H](O[C@@H]1O[C@H](CO)[C@H](O)[C@H](O)[C@H]1O)[C@H](O)[C@@H](O)CO [trihydrate, lactitol trihydrate]
